From patent publication US11866414B2, “Substituted heterocyclic compounds” (BRISTOL-MYERS SQUIBB COMPANY, priority 2021, dated 2024) come the findings set out here.

Read-outs that look alike come from different tables or passages of the source. Marks after values point to notes of the source that are not given here.

Data set [1] can be described thus: Bidirectional permeability assay in Caco-2 cells. The settings on record: human, Caco-2, pH 7.4. On the technique in general: Caco-2 monolayers are a common model of the intestinal barrier.
The test system of data set [2] is Caco-2 cells. The note with it: human, Caco-2, 2 h, 3 μM, pH 7.4.
Data set [3] can be described thus: Brain penetration in vivo assay (brain and plasma exposure). Also on record: species or system mouse.
In data set [4] the test system is IFNα-induced STAT phosphorylation (pSTAT5). The data set can be described thus: IFNα-induced STAT phosphorylation in human whole blood. It is filed as cell-based. The note with it: 1 h compound, 1000 U/mL IFNα A/D 15 min, CD3 positive population, read-out: Human Whole blood IFNa pSTAT5 IC50.
Another data set can be described thus: in vitro. The note with it: human, Caco-2, pH 7.4.
Data set [5] is described as follows: Brain penetration in vivo assay (brain and plasma exposure). The method, then: Brain Penetration In Vivo Assay
A pharmacokinetic study was performed using C57BL6 wild-type mice (n=3 per experiment) to determine brain and plasma exposure of compounds of the invention. The compound was administered orally in a solution of 5% ETHANOL: 90% PEG 300; 5% TPGS at 5 mL/kg for a final concentration of 10 mg/kg. Nice were euthanized 1 hour post-dose and plasma and brain were collected and frozen for analysis. Brain tissues were homogenized in a 1:1 volume of blank C57BL6 mouse plasma. Concentrations of the compound in plasma and brain homogenate were determined by LC-MS analysis.

For data set [6], the system named is Caco-2 cells. The data set can be described thus: Bidirectional permeability assay in Caco-2 cells. The note with it: for Efflux Ratio: Caco-2, 3 μM, pH 7.4, 2 hours; for CACO2 (A-B): permeability coefficient apical-to-basolateral, 3 μM, pH 7.4, 0.5% BSA, 2 hours, 37° C.

Consider `C[C@H]1O[C@@H](O[C@H]2[C@@H](O)C[C@H](O[C@H]3[C@@H](O)C[C@H](O[C@H]4CC[C@@]5(C)[C@H](CC[C@@H]6[C@@H]5C[C@@H](O)[C@]5(C)[C@@H](C7=CC(=O)OC7)CC[C@]65O)C4)O[C@@H]3C)O[C@@H]2C)C[C@H](O)[C@@H]1O` [Digoxin, reference compound], for which, in data set [1], the Papp A→B (commonly the apparent permeability from the apical to the basolateral side of a cell layer) at 2 h, 3 μM is 1.8 ± 0.7 ×10⁻⁶ cm/s; the Papp B→A – broadly, the apparent permeability from the basolateral to the apical side of a cell layer – at 2 h, 3 μM came out at 26.5 ± 7.4 ×10⁻⁶ cm/s; the efflux ratio (commonly the permeability from basolateral to apical divided by that in the opposite direction, in the common usage) at 2 h, 3 μM turned out to be 14.7.
`[2H]C([2H])([2H])NC(=O)c1nnc(NC(=O)C2CC2)cc1Nc1cccc(-c2cnn(CCF)n2)c1OC` [Example 2, 6-cyclopropaneamido-4-({3-[2-(2-fluoroethyl)-2H-1,2,3-triazol-4-yl]-2-methoxyphenyl}amino)-N—(^2H3)methylpyridazine-3-carboxamide]: the “CACO2 (A-B)” value with Caco-2 cells [2] is 427 nm/s. Besides, the “Ratio of exposure in brain to plasma (mouse)” value in data set [3] (footnote *: 2 mpk iv solution dose) is 0.1*.
`[2H]C([2H])([2H])NC(=O)c1nnc(NC(=O)OC)cc1Nc1cccc(-c2cnn(C)n2)c1OC` [Example 7, methyl N-(5-{[2-methoxy-3-(2-methyl-2H-1,2,3-triazol-4-yl)phenyl]amino}-6-[(^2H3)methylcarbamoyl]pyridazin-3-yl)carbamate]: the 50% inhibitory concentration (IC50) (commonly the concentration needed to halve the response being measured) in data set [4] is 390 nM. Besides, in data set [3] (C57BL6, mouse, brain / plasma, 2 mg/kg, footnote **: 2 mpk iv solution dose, exposures measured at 40 minutes, read-out: Ratio of exposure in brain to plasma (mouse)), the Kp at 40 min was 0.5. Also, in “in vitro”, the apparent permeability from apical to basolateral (Papp A→B) at 2 h, 3 μM came to 41.6 ×10⁻⁶ cm/s and the efflux ratio at 2 h, 3 μM is 0.4.
With `[2H]C([2H])([2H])NC(=O)c1nnc(NC(=O)[C@@H]2CC23CC3)cc1Nc1cccc(-c2cnn(C)n2)c1OC` [Example 13, 4-{[2-methoxy-3-(2-methyl-2H-1,2,3-triazol-4-yl)phenyl]amino}-N—(^2H3)methyl-6-[(1R)-spiro[2.2]pentane-1-amido]pyridazine-3-carboxamide], the “Ratio of exposure in brain to plasma (mouse) (1 h, 10 mpk, po)” value in data set [5] was 0.4. Besides, in the data set with Caco-2 cells [6], the “Efflux Ratio” value is 0.7 and the “CACO2 (A-B)” value came to 251 nm/s.
For `[2H]C([2H])([2H])NC(=O)c1nnc(NC(=O)C2CC2)cc1Nc1cc(C)cc(-c2cnn(C)n2)c1OC` [Example 17, 6-cyclopropaneamido-4-{[2-methoxy-5-methyl-3-(2-methyl-2H-1,2,3-triazol-4-yl)phenyl]amino}-N—(^2H3)methylpyridazine-3-carboxamide], in the data set with Caco-2 cells [2], the “CACO2 (A-B)” value is 282 nm/s. Further, the “Ratio of exposure in brain to plasma (mouse) (1 h, 10 mpk, po)” value in data set [3] (footnote ***: nanosupension in 0.5% methocel A4M, 0.1% tween 80, 99.4% water) is recorded as 0.2***.
Turning to `[2H]C([2H])([2H])NC(=O)c1nnc(NC(=O)N(C)C(C)C)cc1Nc1nccc(-c2cnn(C)n2)c1OC` [Example 59, 4-{[3-methoxy-4-(2-methyl-2H-1,2,3-triazol-4-yl)pyridin-2-yl]amino}-N—(^2H3)methyl-6-{[methyl(propan-2-yl)carbamoyl]amino}pyridazine-3-carboxamide], in the data set on Caco-2 cells [6], the “Efflux Ratio” value is on record as 0.8 and the “CACO2 (A-B)” value amounted to 351 nm/s.
For `[2H]C([2H])([2H])NC(=O)c1nnc(NC(=O)C2CC2)cc1Nc1nc(F)cc(-c2cnn(C)n2)c1OC` [Example 62, 6-(Cyclopropanecarboxamido)-4-((6-fluoro-3-methoxy-4-(2-methyl-2H-1,2,3-triazol-4-yl)pyridin-2-yl)amino)-N-(methyl-d3)pyridazine-3-carboxamide], the half-inhibitory concentration (IC50) in data set [4] was 120 nM. Besides, the Kp at 1.5 h in data set [3] (C57BL6, mouse, brain / plasma, 2 mg/kg, footnote *****: 2 mpk iv solution dose, exposures measured at 90 minutes, read-out: Ratio of exposure in brain to plasma (mouse)) amounted to 0.6. In “in vitro”, the Papp A→B at 2 h, 3 μM was found to be 43.2 ×10⁻⁶ cm/s and the efflux ratio at 2 h, 3 μM turned out to be 0.4.
